Laboratory results taken from US20070004660A1, “Synergistic Modulation of Flt3 Kinase Using Alkylquinolines and Alkylquinazolines” (priority 2005, published 2007).

These compounds were tested on MV4-11 cells (assay: Inhibition of MV4-11 cell proliferation (CellTiterGlo, 72 h)). Settings: Homo sapiens; 72 h growth inhibition; uncertainty ±20%.
Format: cell-based

SMILES	IC50 [nM]
O=C(Nc1ccc(N2CCOCC2)cc1)N1CCC(c2ncnc3cc(N4CC[C@H](O)C4)ccc23)CC1 [Example 128, 4-[7-(3-Hydroxy-pyrrolidin-1-yl)-quinazolin-4-yl]-piperidine-1-carboxylic acid (4-morpholin-4-yl-phenyl)-amide]	16
CC(C)Oc1ccc(NC(=O)N2CCC(c3ncnc4ccc(N5CCN(C)CC5)cc34)CC2)cc1 [Example 131, 4-[6-(4-Methyl-piperazin-1-yl)-quinazolin-4-yl]-piperidine-1-carboxylic acid (4-isopropoxy-phenyl)-amide]	2800
O=C(Nc1ccc(N2CCOCC2)cc1)N1CCC(c2ncnc3cc(N4CCC[C@@H]4CO)ccc23)CC1 [Example 132, (R)-4-[7-(2-Hydroxymethyl-pyrrolidin-1-yl)-quinazolin-4-yl]-piperidine-1-carboxylic acid (4-morpholin-4-yl-phenyl)-amide]	33
O=C(Nc1ccc(N2CCOCC2)cc1)N1CCC(c2ncnc3cc(OCCCN4CCOCC4)ccc23)CC1 [Example 133, 4-[7-(3-Morpholin-4-yl-propoxy)-quinazolin-4-yl]-piperidine-1-carboxylic acid (4-morpholin-4-yl-phenyl)-amide]	58
CCN(CC)CCCOc1ccc2c(C3CCN(C(=O)Nc4ccc(N5CCOCC5)cc4)CC3)ncnc2c1 [Example 134, 4-[7-(3-Diethylamino-propoxy)-quinazolin-4-yl]-piperidine-1-carboxylic acid (4-morpholin-4-yl-phenyl)-amide]	43
CN1CCN(c2ccc3c(C4CCN(C(=O)Nc5ccc(N6CCOCC6)cc5)CC4)ncnc3c2)CC1 [Example 135, 4-[7-(4-Methyl-piperazin-1-yl)-quinazolin-4-yl]-piperidine-1-carboxylic acid (4-morpholin-4-yl-phenyl)-amide]	125
CCN1CCN(c2ccc3c(C4CCN(C(=O)Nc5ccc(N6CCOCC6)cc5)CC4)ncnc3c2)CC1 [Example 136, 4-[7-(4-Ethyl-piperazin-1-yl)-quinazolin-4-yl]-piperidine-1-carboxylic acid (4-morpholin-4-yl-phenyl)-amide]	163
O=C(Nc1ccc(N2CCOCC2)cc1)N1CCC(c2ncnc3cc(N4CCN(CCO)CC4)ccc23)CC1 [Example 137, 4-{7-[4-(2-Hydroxy-ethyl)-piperazin-1-yl]-quinazolin-4-yl}-piperidine-1-carboxylic acid (4-morpholin-4-yl-phenyl)-amide]	74
CN1CCCN(c2ccc3c(C4CCN(C(=O)Nc5ccc(N6CCOCC6)cc5)CC4)ncnc3c2)CC1 [Example 138, 4-[7-(4-Methyl-[1,4]diazepan-1-yl)-quinazolin-4-yl]-piperidine-1-carboxylic acid (4-morpholin-4-yl-phenyl)-amide]	220
O=C(Nc1ccc(N2CCOCC2)cc1)N1CCC(c2ncnc3cc(N4CCC[C@H]4CO)ccc23)CC1 [Example 139, (S)-4-[7-(2-Hydroxymethyl-pyrrolidin-1-yl)-quinazolin-4-yl]-piperidine-1-carboxylic acid (4-morpholin-4-yl-phenyl)-amide]	387
O=C(Nc1ccc(N2CCOCC2)cc1)N1CCC(c2ncnc3cc(N4CCNCC4)ccc23)CC1 [Example 140, 4-(7-Piperazin-1-yl-quinazolin-4-yl)-piperidine-1-carboxylic acid (4-morpholin-4-yl-phenyl)-amide]	170
CC(=O)N1CCN(c2ccc3c(C4CCN(C(=O)Nc5ccc(N6CCOCC6)cc5)CC4)ncnc3c2)CC1 [Example 141, 4-[7-(4-Acetyl-piperazin-1-yl)-quinazolin-4-yl]-piperidine-1-carboxylic acid (4-morpholin-4-yl-phenyl)-amide]	79
CS(=O)(=O)N1CCN(c2ccc3c(C4CCN(C(=O)Nc5ccc(N6CCOCC6)cc5)CC4)ncnc3c2)CC1 [Example 142, 4-[7-(4-Methanesulfonyl-piperazin-1-yl)-quinazolin-4-yl]-piperidine-1-carboxylic acid (4-morpholin-4-yl-phenyl)-amide]	88
CN(C)C(=O)N1CCN(c2ccc3c(C4CCN(C(=O)Nc5ccc(N6CCOCC6)cc5)CC4)ncnc3c2)CC1 [Example 143, 4-{4-[1-(4-Morpholin-4-yl-phenylcarbamoyl)-piperidin-4-yl]-quinazolin-7-yl}-piperazine-1-carboxylic acid dimethylamide]	39
CN(C)CC(=O)N1CCN(c2ccc3c(C4CCN(C(=O)Nc5ccc(N6CCOCC6)cc5)CC4)ncnc3c2)CC1 [Example 144, 4-{7-[4-(2-Dimethylamino-acetyl)-piperazin-1-yl]-quinazolin-4-yl}-piperidine-1-carboxylic acid (4-morpholin-4-yl-phenyl)-amide]	117
O=C(Nc1ccc(N2CCOCC2)cc1)N1CCC(c2ncnc3cc(N4CCOCC4)ccc23)CC1 [Example 145, 4-(7-Morpholin-4-yl-quinazolin-4-yl)-piperidine-1-carboxylic acid (4-morpholin-4-yl-phenyl)-amide]	137
CS(=O)(=O)CCNc1ccc2c(C3CCN(C(=O)Nc4ccc(N5CCOCC5)cc4)CC3)ncnc2c1 [Example 146, 4-[7-(2-Methanesulfonyl-ethylamino)-quinazolin-4-yl]-piperidine-1-carboxylic acid (4-morpholin-4-yl-phenyl)-amide]	322
O=C(Nc1ccc(N2CCCC2)cc1)N1CCC(c2ncnc3cc(OCCN4CCOC4=O)ccc23)CC1 [Example 147, 4-{7-[2-(2-Oxo-oxazolidin-3-yl)-ethoxy]-quinazolin-4-yl}-piperidine-1-carboxylic acid (4-pyrrolidin-1-yl-phenyl)-amide]	51
O=C(Nc1ccc(N2CCOCC2)cc1)N1CCC(c2ncnc3cc(OCCN4CCOC4=O)ccc23)CC1 [Example 148, 4-{7-[2-(2-Oxo-oxazolidin-3-yl)-ethoxy]-quinazolin-4-yl}-piperidine-1-carboxylic acid (4-morpholin-4-yl-phenyl)-amide]	66
CN(C)[C@@H]1CCN(c2ccc3c(C4CCN(C(=O)Nc5ccc(N6CCCC6)cc5)CC4)ncnc3c2)C1 [Example 149, (R)-4-[7-(3-Dimethylamino-pyrrolidin-1-yl)-quinazolin-4-yl]-piperidine-1-carboxylic acid (4-pyrrolidin-1-yl-phenyl)-amide]	46

Continued, values first:

IC50 [nM]	SMILES
269	CN(C)[C@@H]1CCN(c2ccc3c(C4CCN(C(=O)Nc5ccc(N6CCOCC6)cc5)CC4)ncnc3c2)C1 [Example 150, (R)-4-[7-(3-Dimethylamino-pyrrolidin-1-yl)-quinazolin-4-yl]-piperidine-1-carboxylic acid (4-morpholin-4-yl-phenyl)-amide]
193	CN1CCC[C@H]1COc1ccc2c(C3CCN(C(=O)Nc4ccc(N5CCCC5)cc4)CC3)ncnc2c1 [Example 151, (S)-4-[7-(1-Methyl-pyrrolidin-2-ylmethoxy)-quinazolin-4-yl]-piperidine-1-carboxylic acid (4-pyrrolidin-1-yl-phenyl)-amide]
21	O=C(Nc1ccc(N2CCCC2)cc1)N1CCC(c2ncnc3cc(OCCN4CCC[C@H]4CO)ccc23)CC1 [Example 152, (S)-4-{7-[2-(2-Hydroxymethyl-pyrrolidin-1-yl)-ethoxy]-quinazolin-4-yl}-piperidine-1-carboxylic acid (4-pyrrolidin-1-yl-phenyl)-amide]
395	O=C(Nc1ccc(N2CCOCC2)cc1)N1CCC(c2ncnc3cc(OCCN4CCC[C@H]4CO)ccc23)CC1 [Example 153, (S)-4-{7-[2-(2-Hydroxymethyl-pyrrolidin-1-yl)-ethoxy]-quinazolin-4-yl}-piperidine-1-carboxylic acid (4-morpholin-4-yl-phenyl)-amide]
63	CC(=O)N1CC[C@@H](Oc2ccc3c(C4CCN(C(=O)Nc5ccc(N6CCCC6)cc5)CC4)ncnc3c2)C1 [Example 154, (R)-4-[7-(1-Acetyl-pyrrolidin-3-yloxy)-quinazolin-4-yl]-piperidine-1-carboxylic acid (4-pyrrolidin-1-yl-phenyl)-amide]
13	CNC(=O)C1CCN(c2ccc3c(C4CCN(C(=O)Nc5ccc(N6CCCC6)cc5)CC4)ncnc3c2)CC1 [Example 155, 4-[7-(4-Carboxylic acid methylamide-piperidin-1-yl)-quinazolin-4-yl]-piperidine-1-carboxylic acid (4-pyrrolidin-1-yl-phenyl)-amide]
74	CN1CCN(CCOc2ccc3c(C4CCN(C(=O)Nc5ccc(N6CCOCC6)cc5)CC4)ncnc3c2)CC1 [Example 156, 4-{7-[2-(4-Methyl-piperazin-1-yl)-ethoxy]-quinazolin-4-yl}-piperidine-1-carboxylic acid (4-morpholin-4-yl-phenyl)-amide]
9	CN1CCN(CCOc2ccc3c(C4CCN(C(=O)Nc5ccc(N6CCCC6)cc5)CC4)ncnc3c2)CC1 [Example 157, 4-{7-[2-(4-Methyl-piperazin-1-yl)-ethoxy]-quinazolin-4-yl}-piperidine-1-carboxylic acid (4-pyrrolidin-1-yl-phenyl)-amide]
11	CN1CCN(CCCOc2ccc3c(C4CCN(C(=O)Nc5ccc(N6CCCC6)cc5)CC4)ncnc3c2)CC1 [Example 158, 4-{7-[3-(4-Methyl-piperazin-1-yl)-propoxy]-quinazolin-4-yl}-piperidine-1-carboxylic acid (4-pyrrolidin-1-yl-phenyl)-amide]
6	CN1CCN(c2ccc3c(C4CCN(C(=O)Nc5ccc(N6CCCC6)cc5)CC4)ncnc3c2)CC1 [Example 159, 4-[7-(4-Methyl-piperazin-1-yl)-quinazolin-4-yl]-piperidine-1-carboxylic acid (4-pyrrolidin-1-yl-phenyl)-amide]
67	CN1CCN(c2ccc3c(C4CCN(C(=O)Nc5ccc(N6CCCC6)nc5)CC4)ncnc3c2)CC1 [Example 160, 4-[7-(4-Methyl-piperazin-1-yl)-quinazolin-4-yl]-piperidine-1-carboxylic acid (6-pyrrolidin-1-yl-pyridin-3-yl)-amide]
13	O=C(Nc1ccc(N2CCCC2)cc1)N1CCC(c2ncnc3cc(OCCCN4CCC[C@H]4CO)ccc23)CC1 [Example 161, (S)-4-{7-[3-(2-Hydroxymethyl-pyrrolidin-1-yl)-propoxy]-quinazolin-4-yl}-piperidine-1-carboxylic acid (4-pyrrolidin-1-yl-phenyl)-amide]
